Read-outs that look alike come from different tables or passages of the source.
Legend:
[1] = biological target: T1, BuChE (from human serum) (Homo sapiens, UniProt P06276); assay: biochemical
T1 construct: human BuChE purified by human serum; from tissue; host or cells: human serum
Description: (§1) All of the assay of acetylcholinesterase (AChE) and butyrylcholinesterase (BuChE) were performed according to the method described by Ellman et al. using the rat AChE purified from the rat brain and human BuChE purified by human serum. In an enzymatic reaction medium contained different concentration of tested compounds and AChE suspended in the phosphate buffer solution at pH 7.2. After 30 min at room temperature, acetylthiocholine iodide and 5.5′-dithiobis-2-nitrobenzoic acid (DNTB) were added and the reaction mixture incubated at 37 °C for 60 min. […] The parallel control experiment was carried without tested compounds in the reaction mixture. For BuChE inhibitory assay, the procedure described above was followed except for the use of enzyme and substrate, instead of which butyrylcholinesterase and butyrylthiocholine chloride were used, respectively. Assays were done with a blank containing all compounds except AChE or BuChE in order to account for nonenzymatic reactions. Each inhibitory test was conducted in triplicate. […] Each concentration was assayed in triplicate and data were expressed as the mean ± SEM.

[2] = biological target: T2, AChE (from rat brain) (Rattus norvegicus, UniProt P37136); assay: biochemical; assay type: biochemical
T2 construct: rat AChE purified from the rat brain; from tissue; host or cells: rat brain
T2 sequence (P37136 32-614): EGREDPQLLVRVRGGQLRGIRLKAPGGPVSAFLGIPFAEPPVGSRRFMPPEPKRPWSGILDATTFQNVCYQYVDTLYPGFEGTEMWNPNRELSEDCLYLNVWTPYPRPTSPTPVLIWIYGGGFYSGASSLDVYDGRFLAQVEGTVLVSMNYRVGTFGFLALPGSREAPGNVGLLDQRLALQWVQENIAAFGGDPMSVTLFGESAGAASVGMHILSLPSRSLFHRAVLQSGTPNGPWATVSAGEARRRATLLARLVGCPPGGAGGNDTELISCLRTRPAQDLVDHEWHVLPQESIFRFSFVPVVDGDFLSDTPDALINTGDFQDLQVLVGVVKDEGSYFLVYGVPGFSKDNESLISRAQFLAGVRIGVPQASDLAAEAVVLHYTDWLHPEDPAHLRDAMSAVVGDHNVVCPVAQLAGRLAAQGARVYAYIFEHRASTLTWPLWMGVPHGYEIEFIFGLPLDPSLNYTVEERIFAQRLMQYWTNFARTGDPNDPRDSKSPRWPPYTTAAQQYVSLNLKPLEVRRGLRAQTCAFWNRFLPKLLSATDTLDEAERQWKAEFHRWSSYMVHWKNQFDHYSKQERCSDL
Description: as §1

[3] = BuChE from human serum, means ± SEM of three experiments, read-out: IC50 µM ± SEM BuChE
[4] = AChE from rat brain, footnote d: inactive up to 100 µM/L, read-out: IC50 µM ± SEM AChE
[5] = AChE from rat brain, means ± SEM of three experiments, read-out: IC50 µM ± SEM AChE

T1 sequence (P06276 29-602): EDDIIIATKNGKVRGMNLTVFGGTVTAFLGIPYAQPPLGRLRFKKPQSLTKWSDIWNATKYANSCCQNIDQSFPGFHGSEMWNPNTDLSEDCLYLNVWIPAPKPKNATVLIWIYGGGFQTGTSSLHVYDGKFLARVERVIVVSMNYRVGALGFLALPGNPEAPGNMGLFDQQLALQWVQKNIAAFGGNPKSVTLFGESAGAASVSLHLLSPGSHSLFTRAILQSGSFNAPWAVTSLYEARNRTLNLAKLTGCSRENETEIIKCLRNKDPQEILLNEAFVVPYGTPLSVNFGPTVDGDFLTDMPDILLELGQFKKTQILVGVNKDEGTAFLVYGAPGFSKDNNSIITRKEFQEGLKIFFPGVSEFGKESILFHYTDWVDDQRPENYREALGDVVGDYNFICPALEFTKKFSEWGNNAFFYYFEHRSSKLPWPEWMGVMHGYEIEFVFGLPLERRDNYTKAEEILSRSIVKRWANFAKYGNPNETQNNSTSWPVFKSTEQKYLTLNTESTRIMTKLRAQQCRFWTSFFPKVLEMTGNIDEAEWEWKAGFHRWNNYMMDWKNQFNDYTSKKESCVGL

## CN(C)CCC(=O)c1ccc(-c2ccc(C(=O)CCN(C)C)cc2)cc1 [Compound 1, 4,4′-bi-(β-dimethylamino-propinoyl)-biphenyl]
[1]
  IC50: 0.19 µM
[2]
  IC50: 0.75 µM

## CN(C)CC(=O)c1ccc(-c2ccc(C(=O)CN(C)C)cc2)cc1 [Compound 12, 1,1′-([1,1′-Biphenyl]-4,4′-diyl)bis(2-(dimethylamino)ethanone)]
[1]; [3]
  IC50: 91.7 ± 15.7 µM
[2]; [4]
  IC50: > 100 µM

## O=C(CN1CCCCC1)c1ccc(-c2ccc(C(=O)CN3CCCCC3)cc2)cc1 [Compound 13, 1,1′-([1,1′-Biphenyl]-4,4′-diyl)bis(2-(piperidin-1-yl)ethanone)]
[1]
  IC50: 71.7 ± 3.01 µM
[2]; [4]
  IC50: > 100 µM

## O=C(CN1CCOCC1)c1ccc(-c2ccc(C(=O)CN3CCOCC3)cc2)cc1 [Compound 14, 1,1′-([1,1′-Biphenyl]-4,4′-diyl)bis(2-morpholinoethanone)]
[1]; [3]
  IC50: 1.44 ± 0.23 µM
[2]
  IC50: > 100 µM

## CCN(CC)CCC(=O)c1ccc(-c2ccc(C(=O)CCN(CC)CC)cc2)cc1 [Compound 15, 4,4′-Bis(β-diethylamino-propinoyl)-biphenyl]
[1]
  IC50: 0.74 ± 0.09 µM
[2]
  IC50: 1.18 ± 0.29 µM

## CCCN(CCC)CCC(=O)c1ccc(-c2ccc(C(=O)CCN(CCC)CCC)cc2)cc1 [Compound 16, 4,4′-Bis(β-dipropylamino-propinoyl)-biphenyl]
[1]
  IC50: 2.83 ± 0.5 µM
[2]
  IC50: 0.88 ± 0.17 µM

## O=C(CCN1CCC1)c1ccc(-c2ccc(C(=O)CCN3CCC3)cc2)cc1 [Compound 17, 4,4′-Bis(β-azetidin-propinoyl)-biphenyl]
[1]
  IC50: 2.39 ± 0.75 µM
[2]
  IC50: 0.71 ± 0.06 µM

## O=C(CCN1CCCC1)c1ccc(-c2ccc(C(=O)CCN3CCCC3)cc2)cc1 [Compound 18, 4,4′-Bis(β-pyrrolidin-propinoyl)-biphenyl]
[1]
  IC50: 1.16 ± 0.09 µM
[2]
  IC50: 0.33 ± 0.06 µM

## O=C(CCN1CCCCC1)c1ccc(-c2ccc(C(=O)CCN3CCCCC3)cc2)cc1 [Compound 19]
[1]
  IC50: 1.25 ± 0.15 µM
[2]
  IC50: 0.096 ± 0.006 µM
[2]; relative to compound 1
  fold more potent than the lead compound (1) for inhibiting AChE: eight

## O=C(CCN1CCOCC1)c1ccc(-c2ccc(C(=O)CCN3CCOCC3)cc2)cc1 [Compound 20]
[1]
  IC50: 0.72 ± 0.1 µM
[2]
  IC50: 0.97 ± 0.08 µM

## O=C(CCN1CCCCCC1)c1ccc(-c2ccc(C(=O)CCN3CCCCCC3)cc2)cc1 [Compound 21, 4,4′-Bis(β-azepan-propinoyl)-biphenyl]
[1]
  IC50: 1.94 ± 0.07 µM
[2]
  IC50: 1.43 ± 0.33 µM

## CN1CCN(CCC(=O)c2ccc(-c3ccc(C(=O)CCN4CCN(C)CC4)cc3)cc2)CC1 [Compound 22, 4,4′-Bis(β-4-methylpiperazin-propinoyl)-biphenyl]
[1]
  IC50: 13.8 ± 0.81 µM
[2]
  IC50: 1.61 ± 0.38 µM

## O=C(CCCN1CCCCC1)c1ccc(-c2ccc(C(=O)CCCN3CCCCC3)cc2)cc1 [Compound 23, 1,1′-([1,1′-Biphenyl]-4,4′-diyl)bis(4-(piperidin-1-yl)butan-1-one)]
[1]
  IC50: 5.9 ± 0.4 µM
[2]
  IC50: 1.32 ± 0.43 µM

## O=C(CCCCN1CCCCC1)c1ccc(-c2ccc(C(=O)CCCCN3CCCCC3)cc2)cc1 [Compound 24, 1,1′-([1,1′-Biphenyl]-4,4′-diyl)bis(5-(piperidin-1-yl)pentan-1-one)]
[1]
  IC50: 2.65 ± 0.11 µM
[2]
  IC50: 0.82 ± 0.16 µM

## CN(C)CC(=O)c1ccc(CCc2ccc(C(=O)CN(C)C)cc2)cc1 [Compound 25, 1,1′-(Ethane-1,2-diylbis(4,1-phenylene))bis(2-(dimethylamino)ethanone)]
[1]
  IC50: 9.11 ± 2.55 µM
[2]
  IC50: 62.3 ± 14.5 µM

## O=C(CN1CCCCC1)c1ccc(CCc2ccc(C(=O)CN3CCCCC3)cc2)cc1 [Compound 26, 1,1′-(Ethane-1,2-diylbis(4,1-phenylene))bis(2-(piperidin-1-yl)ethanone)]
[1]
  IC50: 20.7 ± 5.44 µM
[2]; [5]
  IC50: 74.5 ± 8.5 µM

## CN1CCN(CC(=O)c2ccc(CCc3ccc(C(=O)CN4CCN(C)CC4)cc3)cc2)CC1 [Compound 27, 1,1′-(Ethane-1,2-diylbis(4,1-phenylene))bis(2-(4-methylpiperazin-1-yl)ethanone)]
[1]
  IC50: 66.5 ± 17 µM
[2]
  IC50: 74.1 ± 11.5 µM

## O=C(CN1CCOCC1)c1ccc(CCc2ccc(C(=O)CN3CCOCC3)cc2)cc1 [Compound 28]
[1]; [3]
  IC50: 6.3 ± 1.6 µM
[2]; [4]
  IC50: > 100 µM

## CN(C)CCC(=O)c1ccc(CCc2ccc(C(=O)CCN(C)C)cc2)cc1 [Compound 29, 1,1′-(Ethane-1,2-diylbis(4,1-phenylene))bis(3-(dimethylamino)propan-1-one)]
[1]
  IC50: 1.21 ± 0.22 µM
[2]
  IC50: 2.62 ± 0.63 µM

## O=C(CCN1CCCCC1)c1ccc(CCc2ccc(C(=O)CCN3CCCCC3)cc2)cc1 [Compound 30, 1,1′-(Ethane-1,2-diylbis(4,1-phenylene))bis(3-(piperidin-1-yl)propan-1-one)]
[1]; [3]
  IC50: 3.14 ± 0.24 µM
[2]
  IC50: 0.5 ± 0.06 µM

## O=C(CCN1CCOCC1)c1ccc(CCc2ccc(C(=O)CCN3CCOCC3)cc2)cc1 [Compound 31, 1,1′-(Ethane-1,2-diylbis(4,1-phenylene))bis(3-morpholinopropan-1-one)]
[1]
  IC50: 6.38 ± 1.26 µM
[2]
  IC50: 3.53 ± 0.79 µM

## O=C(CCCN1CCCCC1)c1ccc(CCc2ccc(C(=O)CCCN3CCCCC3)cc2)cc1 [Compound 32, 1,1′-(Ethane-1,2-diylbis(4,1-phenylene))bis(4-(piperidin-1-yl)butan-1-one)]
[1]
  IC50: 19.2 ± 4.78 µM
[2]
  IC50: 3.67 ± 0.92 µM

## O=C(CCCCN1CCCCC1)c1ccc(CCc2ccc(C(=O)CCCCN3CCCCC3)cc2)cc1 [Compound 33, 1,1′-(Ethane-1,2-diylbis(4,1-phenylene))bis(5-(piperidin-1-yl)pentan-1-one)]
[1]
  IC50: 1.64 ± 0.27 µM
[2]
  IC50: 0.19 ± 0.08 µM

## OC(CCN1CCCCC1)c1ccc(-c2ccc(C(O)CCN3CCCCC3)cc2)cc1 (centres unmarked) [Compound 34, 1,1′-([1,1′-Biphenyl]-4,4′-diyl)bis(3-(piperidin-1-yl)propan-1-ol)]
[1]
  IC50: 13.8 ± 1.59 µM
[2]
  IC50: 31.7 ± 10.2 µM

## OC(CCN1CCOCC1)c1ccc(-c2ccc(C(O)CCN3CCOCC3)cc2)cc1 (centres unmarked) [Compound 35, 1,1′-([1,1′-Biphenyl]-4,4′-diyl)bis(3-morpholinopropan-1-ol)]
[1]; BuChE from human serum, footnote d: inactive up to 100 µM/L, read-out: IC50 µM ± SEM BuChE
  IC50: > 100 µM
[2]; [4]
  IC50: > 100 µM

## OC(CCN1CCCCC1)c1ccc(CCc2ccc(C(O)CCN3CCCCC3)cc2)cc1 (centres unmarked) [Compound 36, 1,1′-(Ethane-1,2-diylbis(4,1-phenylene))bis(3-(piperidin-1-yl)propan-1-ol)]
[1]; [3]
  IC50: 25.9 ± 6.81 µM
[2]; [5]
  IC50: 74.9 ± 35.6 µM

Source: publication PMC6155837, “Design, Synthesis, and Biological Evaluation of a New Series of Biphenyl/Bibenzyl Derivatives Functioning as Dual Inhibitors of Acetylcholinesterase and Butyrylcholinesterase” (Molecules : A Journal of Synthetic Chemistry and Natural …, 2017)
